Structures are written as SMILES. pIC50: −log10 of the molar value. Like-named read-outs stand apart in the source and are kept apart here.

We go through 20 compounds from US20140107109A1, “AMINO-DIHYDROTHIAZINE AND AMINO-DIOXIDO DIHYDROTHIAZINE COMPOUNDS AS BETA-SECRETASE ANTAGONISTS AND METHODS OF USE” (Amgen Inc., priority 2012, published 2014).

Test [1] has as its system Aβ40 in conditioned medium of cells stably expressing Amyloid Precursor Protein (APP). The experiment in a line: In vitro BACE cell-based assay (HEK cell assay), Aβ40 sandwich ELISA. The following applies: Homo sapiens, HEK293. The essentials: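 APP-stably expressing cells (40K/well, grown 24 h in DMEM/10% FBS) were treated 24 h with compounds in 10-point dose response starting at 100 μM or 10 μM, 0.1% DMSO final. Secreted Aβ40 was measured by sandwich ELISA (pAb40 capture, biotinylated 6E10 detection, europium time-resolved fluorescence); IC50 from percent inhibition.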

For test [2], the target named is T1, Cathepsin D (Cat D) (Homo sapiens, UniProt P07339).
T1 construct: Recombinant Cat D was expressed in CHO cells; made in house; host or cells: CHO cells
T1 sequence (P07339 65-412, species assumed): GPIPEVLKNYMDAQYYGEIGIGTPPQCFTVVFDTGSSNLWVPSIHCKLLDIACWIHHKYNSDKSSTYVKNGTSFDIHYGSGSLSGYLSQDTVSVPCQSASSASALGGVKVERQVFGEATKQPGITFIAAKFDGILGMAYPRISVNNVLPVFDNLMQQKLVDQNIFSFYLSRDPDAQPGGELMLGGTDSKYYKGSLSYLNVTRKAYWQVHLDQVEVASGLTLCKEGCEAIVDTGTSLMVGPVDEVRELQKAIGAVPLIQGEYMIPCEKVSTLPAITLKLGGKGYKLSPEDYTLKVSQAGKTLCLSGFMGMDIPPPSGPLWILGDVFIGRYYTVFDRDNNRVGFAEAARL
Nature of the test: In vitro enzymatic Cathepsin D (Cat D) FRET assay. It counts as biochemical. As to conditions: read-out: CatD IC50. The essentials:
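Recombinant Cat D expressed in CHO cells, used at 9 nM and pre-incubated one hour with serially diluted inhibitor in DMSO. Peptide substrate carries a fluorophore and quencher flanking the cleavage site; reaction stopped with Tris buffer raising pH to neutrality, then fluorescence read.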

In test [3] the target is Beta Secretase enzyme (BACE1) (Homo sapiens, UniProt P56817). Nature of the test: In vitro enzymatic BACE FRET assay. Type of test: biochemical. As to conditions: read-out: BACE1 FRET assay IC50. The essentials: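 BACE1 cleavage of a 50 nM fluorophore/quencher peptide FRET substrate ran for one hour in 0.05 M acetate pH 4.2, 10% DMSO, 100 uM genapol. Tris buffer raised pH to neutrality to stop the reaction before fluorescence was read (excitation 488 nm, […]).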
Chain of Beta Secretase enzyme (BACE1) (P56817 46-501): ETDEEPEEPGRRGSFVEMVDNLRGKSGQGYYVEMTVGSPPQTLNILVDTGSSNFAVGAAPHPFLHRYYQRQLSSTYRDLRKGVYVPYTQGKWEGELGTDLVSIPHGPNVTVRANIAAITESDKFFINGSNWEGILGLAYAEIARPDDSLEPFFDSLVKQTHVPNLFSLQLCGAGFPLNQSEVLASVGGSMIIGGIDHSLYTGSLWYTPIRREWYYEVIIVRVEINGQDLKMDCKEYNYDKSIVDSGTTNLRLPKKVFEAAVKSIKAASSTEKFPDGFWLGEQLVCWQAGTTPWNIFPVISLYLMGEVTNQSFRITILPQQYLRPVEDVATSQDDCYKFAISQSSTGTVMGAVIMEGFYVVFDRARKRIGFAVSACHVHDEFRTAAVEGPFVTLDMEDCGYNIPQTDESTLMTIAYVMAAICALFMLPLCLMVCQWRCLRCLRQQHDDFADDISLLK

`Cc1nc2c(Nc3ccc(F)c([C@]4(C)CS(=O)(=O)CC(N)=N4)c3)nccc2s1` [Example 58, N-(3-((3R)-5-amino-3-methyl-1,1-dioxido-3,6-dihydro-2H-1,4-thiazin-3-yl)-4-fluorophenyl)-2-methyl[1,3]thiazolo[4,5-c]pyridin-4-amine]: the negative logarithm of the IC50 (pIC50) in test [1] (Aβ40, 24 h incubation) is 6.53; in test [2], 3.52; in test [3], 6.72.
`C=Cc1cc(Cl)cnc1C(=O)Nc1ccc(F)c([C@]2(C)CS(=O)(=O)C(C)(C)C(N)=N2)c1` [Example 195, (R)—N-(3-(5-amino-3,6,6-trimethyl-1,1-dioxido-3,6-dihydro-2H-1,4-thiazin-3-yl)-4-fluorophenyl)-5-chloro-3-vinylpicolinamide]: the negative-log IC50 (pIC50) in test [1] (average IC50, HEK cell assay) was 8.41; in test [2], 3.97; in test [3] (average IC50, enzyme assay), 9.23.
As to `C[C@]1(c2cc(NC(=O)c3cnc(C(F)F)cn3)ccc2F)N=C(N)C2(CCC2)S(=O)(=O)[C@@H]1F` [Example 140, N-(3-((6S,7R)-9-amino-6-fluoro-7-methyl-5,5-dioxido-5-thia-8-azaspiro[3.5]non-8-en-7-yl)-4-fluorophenyl)-5-(difluoromethyl)pyrazine-2-carboxamide], the pIC50 is 7.84 in test [1], < 3.40 in test [2] and 8.06 in test [3].
Turning to `COc1cnc2c(Nc3ccc(F)c([C@@]4(C)N=C(N)C(C)(C)S(=O)(=O)C45CC5)c3)nccc2n1` [Example 250, N-(3-((8R)-6-amino-5,5,8-trimethyl-4,4-dioxido-4-thia-7-azaspiro[2.5]oct-6-en-8-yl)-4-fluorophenyl)-2-methoxypyrido[3,4-b]pyrazin-5-amine], the pIC50 in test [1] (average IC50, cell assay) is 7.23; in test [2], 3.95; in test [3] (average IC50, enzyme assay), 7.67.
For the compound `CC1(C)C(N)=N[C@](C)(c2cc(NC(=O)c3ccc4ccccc4n3)ccc2F)CS1(=O)=O` [Example 315, N-(3-((3R)-5-amino-3,6,6-trimethyl-1,1-dioxido-3,6-dihydro-2H-1,4-thiazin-3-yl)-4-fluorophenyl)-2-quinolinecarboxamide], the pIC50 is 7.60 in test [1] (average IC50, HEK cell assay); 3.60 in test [2]; 7.42 in test [3] (average IC50, enzyme assay).
For the compound `CC1(C)C(N)=N[C@](C)(c2cc(Nc3nccc4cc(Cl)cnc34)ccc2F)[C@@H](F)S1(=O)=O` [Example 168, (2S,3R)-5-amino-3-(5-((3-chloro-1,7-naphthyridin-8-yl)amino)-2-fluorophenyl)-2-fluoro-3,6,6-trimethyl-3,6-dihydro-2H-1,4-thiazine 1,1-dioxide], the negative logarithm of the IC50 (pIC50) is 7.78 in test [1] (average IC50, cell assay); 4.18 in test [2]; 9.04 in test [3] (average IC50, enzyme assay).
Consider `COc1ccc(C(=O)Nc2cnc(F)c([C@]3(C)CS(=O)(=O)C(C)(C)C(N)=N3)c2)nc1` [Example 401, N-(5-((3R)-5-amino-3,6,6-trimethyl-1,1-dioxido-3,6-dihydro-2H-1,4-thiazin-3-yl)-6-fluoro-3-pyridinyl)-5-methoxy-2-pyridinecarboxamide], for which the negative logarithm of the IC50 (pIC50) in test [1] was 7.75; in test [2], 3.12; in test [3], 8.40.
As to `COc1cnc2c(Nc3ccc(F)c([C@]4(C)CS(=O)(=O)C(C)(C)C(N)=N4)c3)ncc(F)c2c1` [Example 50, N-(3-((3R)-5-amino-3,6,6-trimethyl-1,1-dioxido-3,6-dihydro-2H-1,4-thiazin-3-yl)-4-fluorophenyl)-5-fluoro-3-methoxy-1,7-naphthyridin-8-amine], the negative-log IC50 (pIC50) in test [1] (Aβ40, 24 h incubation) is 8.28; in test [2], 4.13; in test [3], 8.70.
`CC1(C)C(N)=N[C@](CF)(c2cc(Nc3ncc(F)c4cc(C#N)cnc34)ccc2F)CS1(=O)=O` [Example 157, (S)-8-((3-(5-amino-3-(fluoromethyl)-6,6-dimethyl-1,1-dioxido-3,6-dihydro-2H-1,4-thiazin-3-yl)-4-fluorophenyl)amino)-5-fluoro-1,7-naphthyridine-3-carbonitrile]: the pIC50 in test [1] (average IC50, cell assay) was 7.57; in test [2] it was < 4.83; in test [3] (average IC50, enzyme assay), 9.25.
For the compound `COc1cnc2c(Nc3ccc(F)c([C@]45COC[C@H]4S(=O)(=O)C(C)(C)C(N)=N5)c3)nccc2n1` [Example 248, N-(3-((4aS,7aS)-3-amino-2,2-dimethyl-1,1-dioxido-7,7a-dihydro-2H-furo[3,4-b][1,4]thiazin-4a(5H)-yl)-4-fluorophenyl)-2-methoxypyrido[3,4-b]pyrazin-5-amine], the negative logarithm of the IC50 (pIC50) in test [1] (average IC50, cell assay) was 7.68; in test [2] it was 3.70; in test [3] (average IC50, enzyme assay), 8.52.
As for `Cc1cc(OC(F)F)cnc1C(=O)Nc1ccc(F)c([C@@]2(C)N=C(N)C(C)(C)S(=O)(=O)C2F)c1` (stereo partly drawn) [Example 330, N-(3-((3R)-5-amino-2-fluoro-3,6,6-trimethyl-1,1-dioxido-3,6-dihydro-2H-1,4-thiazin-3-yl)-4-fluorophenyl)-5-(difluoromethoxy)-3-methyl-2-pyridinecarboxamide], the negative-log IC50 (pIC50) in test [1] (average IC50, HEK cell assay) is 8.39; in test [2] it was 3.87; in test [3] (average IC50, enzyme assay), 9.12.
As for `CC1(C)C(N)=N[C@](C)(c2cc(NC(=O)c3ccc(Cl)cn3)cnc2F)CS1(=O)=O` [Example 398, N-(5-((3R)-5-amino-3,6,6-trimethyl-1,1-dioxido-3,6-dihydro-2H-1,4-thiazin-3-yl)-6-fluoro-3-pyridinyl)-5-chloro-2-pyridinecarboxamide], the pIC50 was 7.94 in test [1], 3.74 in test [2] and 8.70 in test [3].
For the compound `Cc1cc(OC(F)F)cnc1C(=O)Nc1ccc(F)c([C@]2(C)CS(=O)(=O)C3(CCC3)C(N)=N2)c1` [Example 121, (R)—N-(3-(9-amino-7-methyl-5,5-dioxido-5-thia-8-azaspiro[3.5]non-8-en-7-yl)-4-fluorophenyl)-5-(difluoromethoxy)-3-methylpicolinamide], the negative-log IC50 (pIC50) in test [1] is 8.13; in test [2], 4.17; in test [3] it was 8.51.
Regarding `C[C@@]1(c2cc(Br)ncc2F)CS(=O)(=O)C2(CCC2)C(N)=N1` [Example 147, (R)-9-amino-7-(2-bromo-5-fluoropyridin-4-yl)-7-methyl-5-thia-8-azaspiro[3.5]non-8-ene 5,5-dioxide], the pIC50 was < 4.81 in test [1] (average IC50, cell assay); 4.36 in test [2]; 4.77 in test [3] (average IC50, enzyme assay).
For `CC#CCOc1cnc2c(Nc3ccc(F)c([C@]4(C)CS(=O)(=O)C(C)(C)C(N)=N4)c3)nccc2n1` [Example 445, N-(3-((3R)-5-amino-3,6,6-trimethyl-1,1-dioxido-3,6-dihydro-2H-1,4-thiazin-3-yl)-4-fluorophenyl)-2-(2-butyn-1-yloxy)pyrido[3,4-b]pyrazin-5-amine] the same measures were 9.70, 3.75 and 9.49.
As for `CC1(C)C(N)=N[C@](CF)(c2cc(NC(=O)c3ncc(F)cc3F)ccc2F)CS1(=O)=O` [Example 378, N-(3-((3S)-5-amino-3-(fluoromethyl)-6,6-dimethyl-1,1-dioxido-3,6-dihydro-2H-1,4-thiazin-3-yl)-4-fluorophenyl)-3,5-difluoro-2-pyridinecarboxamide], the pIC50 in test [1] was 7.74; in test [2] it was < 3.40; in test [3], 8.80.
Take `CC1(C)C(N)=N[C@](C)(c2cc(NC(=O)c3cnc(OCC(F)(F)F)cn3)cnc2F)CS1(=O)=O` [Example 402, N-(5-((3R)-5-amino-3,6,6-trimethyl-1,1-dioxido-3,6-dihydro-2H-1,4-thiazin-3-yl)-6-fluoro-3-pyridinyl)-5-(2,2,2-trifluoroethoxy)-2-pyrazinecarboxamide]: the pIC50 was 7.96 in test [1], 2.56 in test [2] and 8.96 in test [3].
Consider `CC#Cc1ccnc(Oc2ccc(F)c([C@]3(C)CS(=O)(=O)C(C)(C)C(N)=N3)c2)c1` [Example 286, (5R)-5-(2-fluoro-5-((4-(1-propyn-1-yl)-2-pyridinyl)oxy)phenyl)-2,2,5-trimethyl-5,6-dihydro-2H-1,4-thiazin-3-amine 1,1-dioxide], for which the pIC50 in test [1] (average IC50, cell assay) is 6.10; in test [2], 3.92; in test [3] (average IC50, enzyme assay), 6.64.
For `CC1(C)C(N)=N[C@](C)(c2cc(Oc3ncccc3Cl)ccc2F)CS1(=O)=O` [Example 258, (5R)-5-(5-((3-chloro-2-pyridinyl)oxy)-2-fluorophenyl)-2,2,5-trimethyl-5,6-dihydro-2H-1,4-thiazin-3-amine 1,1-dioxide] the same measures were 6.92, 3.68 and 7.01.
On to `Cc1cc(Cl)cnc1C(=O)Nc1ccc(F)c([C@@]2(CF)CS(=O)(=O)C3(CC3)C(N)=N2)c1` [Example 215, N-(3-((6R)-8-amino-6-(fluoromethyl)-4,4-dioxido-4-thia-7-azaspiro[2.5]oct-7-en-6-yl)-4-fluorophenyl)-5-chloro-3-methyl-2-pyridinecarboxamide], for which the pIC50 is 6.04 in test [1] (average IC50, HEK cells); 3.36 in test [2]; 6.67 in test [3] (average IC50).
